From EP0061283A1, “Antiviral agents, their preparation and use” (BEECHAM GROUP PLC, priority 1981, dated 1982) come the findings set out here.

Series [1] concerns Herpes simplex type 1 virus (HFEM strain). In words: Plaque reduction test in virus-infected Vero cell monolayers. It is filed as cell-based. The following applies: Human alphaherpesvirus 1, 144 h, concentration causing a 50% reduction in the number of virus plaques, Vero cells, 37°C for 6 days, read-out: PDD50 (the source's name). The protocol:
(§1) Vero (African Green Monkey Kidney) cells were grown to confluence in 6 well multidishes, each well being 3.5 cm in diameter. The cells were incubated with Herpes simplex type 1 virus (HFEM strain) and overlaid with 0.5 ml of 0.9% agarose (w/v) in maintenance medium containing the test compound at a range of concentrations from 50 µg/ml in half-log dilution steps. The virus infected cultures were then incubated at 37°C for 6 days before fixing in 4% formaldehyde solution and staining with carbolfuchsin. The dishes were then examined to find what concentration of test compound causing a 50% reduction in the number of virus plaques formed (PDD50 value) and the minimum concentration of test compound which killed the cell monolayer, leaving a clear zone devoid of cells and virus plaques (MTD).
Background: Plaque reduction counts the foci of infection that form in a cell layer.

Series [2] in a line: Minimum concentration killing the cell monolayer (MTD) in the plaque reduction test. It is filed as cell-based, African Green Monkey. Particulars: monkey; minimum concentration which killed the cell monolayer; Vero cells, 37°C for 6 days. The procedure:
as §1

The structures appear in SMILES notation. Where “and” joins values, the source holds several entries; their conditions need not be identical. Equal values may be shown once.

`CCCCC(=O)OC[C@H]1O[C@@H](n2cc(/C=C/Br)c(=O)[nH]c2=O)C[C@@H]1O` [Example 9, E-5-(2-Bromovinyl)-5'-O-valeryl-2'-deoxyuridine]: the IC50 in series [1] is 0.16 µg/mL and 380 nM. Further, the MCC at 144 h in series [2] is over 100 µg/mL.

As to `CC(=O)O[C@H]1C[C@H](n2cc(/C=C/Br)c(=O)[nH]c2=O)O[C@@H]1CO` [Example 6, 3'-O-Acetyl-E-5-(2-bromovinyl)-2'-deoxyuridine], in series [1], the IC50 is 0.41 µg/mL and 1.1 µM. In series [2], this compound showed an MCC at 144 h of over 100 µg/mL.

Consider `O=C(O)CCC(=O)OC[C@H]1O[C@@H](n2cc(/C=C/Br)c(=O)[nH]c2=O)C[C@@H]1O` [Example 12, E-5-(2-bromovinyl)-5'-O-(3-carboxypropionyl)-2'-deoxyuridine], for which, in series [1], the IC50 is 0.35 µg/mL and 800 nM. For the same compound, the MCC at 144 h in series [2] is over 100 µg/mL.

For `CC(=O)OC[C@H]1O[C@@H](n2cc(/C=C/Br)c(=O)[nH]c2=O)C[C@@H]1O` [Example 8, 5'-O-Acetyl-E-5-(2-bromovinyl)-2'-deoxyuridine], in series [1], the IC50 was 0.32 µg/mL and 850 nM. In series [2], the MCC at 144 h was over 100 µg/mL.

On to `CC(C)(C)C(=O)OC[C@H]1O[C@@H](n2cc(/C=C/Br)c(=O)[nH]c2=O)C[C@@H]1OC(=O)C(C)(C)C` [Example 14, E-5-(2-bromovinyl)-3',5'-di-0-pivaloyl-2'-deoxyuridine], for which, in series [1], the IC50 was 8.5 µg/mL and 17 µM. The same compound returned an MCC at 144 h in series [2] of over 100 µg/mL.

In the case of `CCCCC(=O)OC[C@H]1O[C@@H](n2cc(/C=C/Br)c(=O)[nH]c2=O)C[C@@H]1OC(=O)CCCC` [Example 2, E-5-(2-Bromovinyl)-3',5'-di-O-valeryl-2'-deoxyuridine], the IC50 in series [1] was 0.2 µg/mL and 400 nM. The same compound came in with an MCC at 144 h in series [2] of over 100 µg/mL.

Turning to `CC(C)(C)C(=O)OC[C@H]1O[C@@H](n2cc(/C=C/Br)c(=O)[nH]c2=O)C[C@@H]1O` [Example 13, E-5-(2-Bromoyinyl)-5'-O-pivaloyl-2'-deoxyuridine], the IC50 in series [1] is 0.52 µg/mL and 1.3 µM. In series [2], this compound registered an MCC at 144 h of over 100 µg/mL.

In the case of `O=C(O)CCC(=O)O[C@H]1C[C@H](n2cc(/C=C/Br)c(=O)[nH]c2=O)O[C@@H]1CO` [Example 11b, E-5-(2-bromovinyl)-3'-O-(3-carboxypropionyl)-2'-deoxyuridine], in series [1], the IC50 was 0.18 µg/mL and 400 nM. Further, the MCC at 144 h in series [2] was over 100 µg/mL.

Turning to `CCCC(=O)OC[C@H]1O[C@@H](n2cc(/C=C/Br)c(=O)[nH]c2=O)C[C@@H]1OC(=O)CCC` [Example 1, E-5-(2-Bromovinyl)-3',5'-di-O-butyryl-2'-deoxyuridine], the IC50 in series [1] is 0.2 µg/mL and 420 nM. The MCC at 144 h in series [2] was over 100 µg/mL.

As to `O=C(O)CCC(=O)OC[C@H]1O[C@@H](n2cc(/C=C/Br)c(=O)[nH]c2=O)C[C@@H]1OC(=O)CCC(=O)O` [Example 10, E-5-(2-Bromovinyl)-3'.5'-di-O-(3-carboxypropionyl)-2'-deoxyuridine monohydrate], the IC50 in series [1] was 55 µg/mL and 103 µM. The MCC at 144 h in series [2] is over 100 µg/mL.

Turning to `CCCCC(=O)O[C@H]1C[C@H](n2cc(/C=C/Br)c(=O)[nH]c2=O)O[C@@H]1CO` [Example 7, E-5-(2-Bromovinyl)-3'-O-valeryl-2'-deoxyuridine], the IC50 in series [1] is 0.18 µg/mL and 430 nM. The same compound returned an MCC at 144 h in series [2] of over 100 µg/mL.
